Reference: BindingDB's records for patent US20230365530 (The Asean Foundation, 2023)
pIC50: −log10 of the molar value.

Biological target: T1, Histone-lysine N-methyltransferase EHMT2 (Homo sapiens, UniProt Q96KQ7)
T1 sequence (Q96KQ7 whole entry): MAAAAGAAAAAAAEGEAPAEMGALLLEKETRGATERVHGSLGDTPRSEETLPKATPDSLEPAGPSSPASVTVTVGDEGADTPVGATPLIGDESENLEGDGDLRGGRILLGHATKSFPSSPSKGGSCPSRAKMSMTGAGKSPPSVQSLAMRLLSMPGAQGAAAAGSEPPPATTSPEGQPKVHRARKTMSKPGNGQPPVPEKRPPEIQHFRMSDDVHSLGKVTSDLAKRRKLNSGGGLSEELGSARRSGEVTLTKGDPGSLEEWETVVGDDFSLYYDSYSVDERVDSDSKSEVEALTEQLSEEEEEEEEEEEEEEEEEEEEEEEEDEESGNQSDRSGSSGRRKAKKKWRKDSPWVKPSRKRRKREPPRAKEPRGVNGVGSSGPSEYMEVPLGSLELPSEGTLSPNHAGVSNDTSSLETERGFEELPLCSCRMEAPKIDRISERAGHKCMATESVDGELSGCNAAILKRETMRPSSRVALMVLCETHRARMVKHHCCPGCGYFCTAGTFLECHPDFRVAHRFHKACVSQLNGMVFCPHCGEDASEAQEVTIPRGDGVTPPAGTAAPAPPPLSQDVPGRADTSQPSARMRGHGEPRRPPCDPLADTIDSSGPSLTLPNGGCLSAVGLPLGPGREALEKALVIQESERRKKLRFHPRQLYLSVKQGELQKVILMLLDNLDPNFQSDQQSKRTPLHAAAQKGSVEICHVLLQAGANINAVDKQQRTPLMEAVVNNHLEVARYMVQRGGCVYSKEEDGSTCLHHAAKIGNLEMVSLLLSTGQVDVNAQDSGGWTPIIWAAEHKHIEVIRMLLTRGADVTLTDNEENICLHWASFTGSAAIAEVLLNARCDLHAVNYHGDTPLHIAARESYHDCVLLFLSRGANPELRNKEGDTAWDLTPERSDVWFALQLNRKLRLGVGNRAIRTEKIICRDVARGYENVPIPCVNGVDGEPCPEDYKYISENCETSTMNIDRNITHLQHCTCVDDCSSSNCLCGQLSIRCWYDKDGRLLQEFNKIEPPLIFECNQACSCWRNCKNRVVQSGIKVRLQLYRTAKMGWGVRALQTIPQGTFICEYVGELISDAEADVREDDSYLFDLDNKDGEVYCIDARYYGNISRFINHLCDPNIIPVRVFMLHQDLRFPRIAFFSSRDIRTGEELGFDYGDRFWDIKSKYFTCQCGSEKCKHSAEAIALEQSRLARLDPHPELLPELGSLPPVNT
Test: Enzyme Inhibitory Efficacy Assay
Protocol: Specific experimental methods are as follows. First, the compounds of Examples 1 to 89 of 1 nM to 100 μM (4 conc.) were put into a 384 well plate (25 μL/well), and 2 μM […] enzyme (4 conc.) was put into the 384 well plate (25 μL/well). The plate was then centrifuged at 1,500 rpm for 5 seconds after sealing the plate with plate sealing foil. After incubating the EHMT2/G9a enzyme, SAM, and the compounds of Examples above at room temperature for 10 minutes, 2 μM histone H3 peptide (4 conc.) was added to the 384-well plate (25 μL/well). After sealing the plate with plate sealing foil and centrifuging at 1,500 rpm for 5 seconds, an enzymatic reaction was performed at room temperature for 1 hour. Upon completion of the enzyme reaction, 5 μL each of 200 nM Ulight -Streptavidin (4 conc.) and 8 nM Eu-antibody (4 conc.) was added to each well of the plate. The plate was sealed with plate sealing foil, centrifuged at 1,500 rpm for 5 seconds and reacted at room temperature for 1 hour. The signal values were measured with Envision (Ex 320 nm, Em 665 nm), and all background values obtained by reacting without enzyme were deleted from the measured raw data values.

Row | pIC50 | Structure (SMILES)
1 | > 7.00 | COc1cc2c(NC3CCN(C(C)C)CC3)nc(N3CC(F)(F)C3)nc2cc1C#CCCN1CCCC1 [US20230365530, Example 58]
2 | > 7.00 | COc1cc2c(NC3CCN(C(C)C)CC3)nc(N(C)CC(=O)OC(C)(C)C)nc2cc1C#CCCN1CCCC1 [US20230365530, Example 82]
